Results as given in US5081112A, “Method for treating hyperlipidemia” (Otsuka Pharmaceutical Factory Inc., priority 1986, dated 1992).
Like-named read-outs stand apart in the source and are kept apart here.

Legend:
[1] = test system: acyl-CoA:cholesterol acyltransferase (ACAT); assay: inhibitory effect in the enzymatic activities of acyl-CoA:cholesterol acyltransferase (ACAT); type: biochemical; details: rat liver microsomes, 2 min; for Inhibitory effect to ACAT (inhibitory ratio): 10^-4 M, 100 µM; for Inhibitory effect to ACAT (inhibitory ratio), Table 5: head prints 10^14 M
Procedure: Test for determining inhibitory effect in the enzymatic activities of acyl-CoA:cholesterol acyltranferase (ACAT)
50 Microliters of each one of the test compounds was added to rat liver microsomes fraction (containing 0.4 mg of protein) of which volume was adjusted to 150 microliters by adding 0.15 M-potassium phosphate buffer solution (pH 7.4), then the mixture was incubated at 37° C. for 10 minutes. After the incubation, the reaction was started by adding 50 microliters of 0.15 M-potassium phosphate buffer solution (pH 7.4) containing 18 nM [1-^14 C] oleoyl-CoA (10 mCi/mM) and 0.6 mg BSA (bovine serum albumin) at 37° C. for 2 minutes. The reaction was terminated by adding 1 ml of ethanol, then 4 ml of n-hexane was added and shaken, then the n-hexane layer (upper layer) was concentrated to the volume of 3 ml under nitrogen gas stream, thus obtained cholesteryl oleate was isolated by means of a silica gel thin chromatography [developing solvent=petroleum ether: diethyl ether (95:5)] and the radioactivity was measured by using a liquid scintillation counter.
(§1) Control test was also conducted by the procedures similar to those mentioned above in the test group, except that each one of the test compounds was not used.
Inhibitory effect in the enzymatic activities of acyl-CoA:cholesterol acyltransferase (ACAT) performed by each one of the test compounds was calculated, in terms of inhibitory ratio (%), from the formula on the basis of the radioactivity of the control group as follows: [formula] (wherein
[e] is a radioactivity of the control group, and
[f] is a radioactivity of the test group).

[2] = test system: biosynthetic pathway of cholesterol; assay: inhibitory effect in biosynthetic pathway of cholesterol; type: biochemical; details: 10^-4 M; rat liver microsomes and soluble fraction; 90 min, 100 µM
Procedure: Test for determining inhibitory effect in biosynthetic pathway of cholesterol
Each one of the test compounds was added to rat liver microsomes fraction (containing 0.2 mg of protein) and soluble fraction (containing 2 mg of protein), then the volume of the mixture was adjusted to 100 microliters by adding 0.1 M-potassium phosphate buffer solution (pH 7.4), then this mixture was incubated at 37° C. for 10 minutes.
After the incubation, the reaction was started by adding 200 microliters of a solution containing 1 mM ATP, 10 mM glucose-1-phosphate, 6 mM glutathione, 6 mM MgCl2, […], 0.25 mM […], 0.25 mM NADP, and 1 mM [1-^14 C] sodium acetate (3.0 mCi/mM).
The whole mixture was incubated at 37° C. for 90 minutes, then the reaction was terminated by adding […] of 15%-KOH (a 95% ethanol solution), next 2 mg of cholesterol was added thereto, saponified at 75° C. for 1 hour, and cholesterol was extracted with petroleum ether, the extract was concentrated to dryness. To the residue thus obtained was added with 2.5 ml of a mixture of acetone-diethyl ether (1:1) and 2.5 ml of 1%-digitonin (a 50% ethanol solution), then this solution was allowed to stand for 1 hour in cooling condition by using ice-water to precipitate cholesterol. The precipitate was washed with acetone, a mixture of acetonediethyl ether (1:1) and diethyl ether in this order, then the radioactivity of the residue was measured by using a liquid scintillation counter.
as §1
Inhibitory effect in biosynthetic pathway of cholesterol performed by each one of the test compounds was calculated, in terms of inhibitory ratio (%), from the formula on the basis of the radioactivity of the control group as follows: [formula] (wherein
[c] is a radioactivity of the control group, and
[d] is a radio activity of the test group).

[3] = test system: Triton WR-1339-induced hyperlipidemia in rat; assay: antilipotropic effect in Triton WR-1339-induced hyperlipidemia in rat; type: in vivo, Wistar-strain male rats; details: 50 mg/kg oral, vs control
Text: Wistar-strain male rats of 5-9 week age were used as test animals. One test group consisting of six (6) rats.
[a] is a determined value obtained from the control group, and
[b] is a determined value obtained from the test group).

[4] = 24 hours after Triton WR-1339 (400 mg/kg, tail vein), read-out: lowering ratio of serum triglycerides, 24 hours after Triton WR-1339
[5] = 24 hours after Triton WR-1339 (400 mg/kg, tail vein), read-out: lowering ratio of total serum cholesterol, 24 hours after Triton WR-1339
[6] = 48 hours after Triton WR-1339 (400 mg/kg, tail vein), read-out: lowering ratio of serum triglycerides, 48 hours after Triton WR-1339
[7] = 48 hours after Triton WR-1339 (400 mg/kg, tail vein), read-out: lowering ratio of total serum cholesterol, 48 hours after Triton WR-1339

## CCOP(=O)(Cc1ccc(C(=O)N2CCN(c3ccc(Cl)cc3)CC2)cc1)OCC [compound 58]
[1]
  Inhibitory effect to ACAT (inhibitory ratio): 56.6%
[2]
  Inhibitory ratio of cholesterol biosynthesis: 58.4%

## CCOP(=O)(Cc1ccc(C(=O)N(c2ccccc2)c2ccccc2)cc1)OCC [compound 36]
[1]
  Inhibitory effect to ACAT (inhibitory ratio), Table 5: 63.1%
[2]
  Inhibitory ratio of cholesterol biosynthesis: 61.1%

## CCCCCCNC(=O)c1ccc(C(C)P(=O)(OC(C)C)OC(C)C)cc1 (stereo not shown) [compound 26]
[1]
  Inhibitory effect to ACAT (inhibitory ratio), Table 5: 88.9%
[2]
  Inhibitory ratio of cholesterol biosynthesis: 67.4%

## CCOP(=O)(Cc1ccc(C(=O)Nc2cccc(C(F)(F)F)c2)cc1)OCC [compound 27]
[1]
  Inhibitory effect to ACAT (inhibitory ratio), Table 5: 39.5%
[2]
  Inhibitory ratio of cholesterol biosynthesis: 36.2%

## CC(C)OP(=O)(Cc1ccc(C(=O)NCCc2ccccc2)cc1)OC(C)C [compound 11]
[3]; [4]
  inhibition in vivo at 50 mg/kg: 0%
[3]; [5]
  inhibition in vivo at 50 mg/kg: 13.5%
[3]; [6]
  inhibition in vivo at 50 mg/kg: 56.8%
[3]; [7]
  inhibition in vivo at 50 mg/kg: 32.6%
[1]
  Inhibitory effect to ACAT (inhibitory ratio), Table 5: 83.3%
[2]
  Inhibitory ratio of cholesterol biosynthesis: 67.4%

## CCOP(=O)(Cc1ccc(C(=O)Nc2ccccc2C(=O)O)cc1)OCC [compound 66]
[1]
  Inhibitory effect to ACAT (inhibitory ratio): 26.0%

## CCCCCCNC(=O)c1ccc(C(C)P(=O)(OCC)OCC)cc1 (stereo not shown) [compound 63]
[1]
  Inhibitory effect to ACAT (inhibitory ratio): 88.9%
[2]
  Inhibitory ratio of cholesterol biosynthesis: 58.9%

## CCOP(=O)(Cc1ccc(C(=O)N(Cc2ccccc2)c2cc(OC)c(OC)c(OC)c2)cc1)OCC [compound 52]
[1]
  Inhibitory effect to ACAT (inhibitory ratio): 60.5%
[2]
  Inhibitory ratio of cholesterol biosynthesis: 65.6%

## CCOP(=O)(Cc1ccc(C(=O)N(Cc2ccccc2)c2ccc([N+](=O)[O-])cc2)cc1)OCC [compound 10]
[3]; [4]
  inhibition in vivo at 50 mg/kg: 26.9%
[3]; [5]
  inhibition in vivo at 50 mg/kg: 0%
[3]; [6]
  inhibition in vivo at 50 mg/kg: 68.7%
[3]; [7]
  inhibition in vivo at 50 mg/kg: 16.1%
[1]
  Inhibitory effect to ACAT (inhibitory ratio): 69.4%
[2]
  Inhibitory ratio of cholesterol biosynthesis: 75.6%

## O=C(Nc1c(Cl)cccc1Cl)c1ccc(CP(=O)(Oc2ccccc2)Oc2ccccc2)cc1 [compound 29]
[1]
  Inhibitory effect to ACAT (inhibitory ratio), Table 5: 73.9%
[2]
  Inhibitory ratio of cholesterol biosynthesis: 35.8%

## CCOP(=O)(Cc1ccc(C(=O)N(Cc2ccccc2)c2ccccc2)cc1)OCC [compound 65]
[1]
  Inhibitory effect to ACAT (inhibitory ratio): 87.7%

## CCOP(=O)(Cc1ccc(C(=O)N(c2ccccc2)C(C)C)cc1)OCC [compound 32]
[1]
  Inhibitory effect to ACAT (inhibitory ratio), Table 5: 20.1%
[2]
  Inhibitory ratio of cholesterol biosynthesis: 36.4%

## CCOP(=O)(Cc1ccc(C(=O)N(Cc2ccccc2)c2cccc(C(F)(F)F)c2)cc1)OCC [compound 50]
[1]
  Inhibitory effect to ACAT (inhibitory ratio): 84.8%
[2]
  Inhibitory ratio of cholesterol biosynthesis: 78.2%

## CCOP(=O)(Cc1ccc(C(=S)Nc2ccccc2)cc1)OCC [compound 70]
[1]
  Inhibitory effect to ACAT (inhibitory ratio): 39.4%

## CCOP(=O)(Cc1cccc(C(=O)Nc2ccccc2)c1)OCC [compound 64]
[1]
  Inhibitory effect to ACAT (inhibitory ratio), Table 5: 37.6%

## CCOP(=O)(Cc1ccc(C(=O)N(Cc2ccccc2F)c2ccccc2)cc1)OCC [compound 41]
[1]
  Inhibitory effect to ACAT (inhibitory ratio): 84.0%
[2]
  Inhibitory ratio of cholesterol biosynthesis: 84.2%

## CCOP(=O)(Cc1ccc(C(=O)NCCC(c2ccccc2)c2ccccc2)cc1)OCC [compound 31]
[1]
  Inhibitory effect to ACAT (inhibitory ratio), Table 5: 87.7%
[2]
  Inhibitory ratio of cholesterol biosynthesis: 65.4%

## CCOP(=O)(Cc1ccc(C(=O)Nc2ccc(C)cc2)cc1)OCC [compound 22]
[3]; [4]
  inhibition in vivo at 50 mg/kg: 38.6%
[3]; [5]
  inhibition in vivo at 50 mg/kg: 6.9%
[3]; [6]
  inhibition in vivo at 50 mg/kg: 28.1%
[3]; [7]
  inhibition in vivo at 50 mg/kg: 29%
[2]
  Inhibitory ratio of cholesterol biosynthesis: 32.2%
